Source: US20080021069A1, “Receptor Function Regulating Agent” (TAKEDA PHARMACEUTICAL COMPANY LIMITED, priority 2004, published 2008)

First: Cl.FC(F)(F)COc1ccc(-n2c(SCc3ccc(Cl)cc3)nc3ccc(Cl)cc32)cc1
Second: Cl.FC(F)(F)Oc1ccc(-n2c(SCc3ccc(Cl)cc3)nc3cc(Cl)ccc32)cc1
The melting point of the first is higher: 106 to 107 °C for the first, 96 to 100 °C for the second.

First: Cl.Clc1ccc(CSc2nc3cc(Cl)ccc3n2-c2ccc(OCC3CC3)cc2)cc1
Second: Clc1ccc(CSc2nc3ccc(Cl)cc3n2-c2ccc(OCC3CC3)cc2)cc1 [Example 11, 6-Chloro-2-[(4-chlorobenzyl)thio]-1-[4-(cyclopropylmethoxy)phenyl]-1H-benzimidazole]
The melting point of the first is lower: 118 to 126 °C for the first, 137 to 138 °C for the second.

First: COc1ccc(-n2c(SCc3ccc(Cl)cc3)nc3ccc(Cl)cc32)cn1.Cl
Second: COc1ccc(-n2c(SCc3ccc(Cl)cc3)nc3ccc(Cl)cc32)cc1 [Example 1, 6-Chloro-2-[(4-chlorobenzyl)thio]-1-(4-methoxyphenyl)-1H-benzimidazole]
The melting point of the first is lower: 80 to 86 °C for the first, 116 to 117 °C for the second.

First: COc1ccc(-n2c(SCc3ccc(C(F)(F)F)nc3)nc3ccc(Cl)cc32)cn1.Cl
Second: COc1cccc(-n2c(SCc3ccc(Cl)cc3)nc3ccc(Cl)cc32)c1 [Example 17, 6-Chloro-2-[(4-chlorobenzyl)thio]-1-(3-methoxyphenyl)-1H-benzimidazole]
The melting point of the first is lower: 69 to 76 °C for the first, 100 to 101 °C for the second.

First: CCOc1ccc(-n2c(SCc3ccc(C(C)C)cc3)nc3ccc(Cl)cc32)cc1.Cl
Second: CCOc1ccc(-n2c(SCc3ccc(Br)cc3)nc3ccc(Cl)cc32)cc1 [Example 30, 2-[(4-Bromobenzyl)thio]-6-chloro-1-(4-ethoxyphenyl)-1H-benzimidazole]
The melting point of the first is lower: 96 to 100 °C for the first, 136 to 137 °C for the second.

First: COc1ccc(-n2c(SCc3ccccc3Cl)nc3ccc(Cl)cc32)cc1 [Example 3, 6-Chloro-2-[(2-chlorobenzyl)thio]-1-(4-methoxyphenyl)-1H-benzimidazole]
Second: COc1ccc(-n2c(SCc3ccccc3)nc3ccc(Cl)cc32)cc1 [Example 21, 2-(Benzylthio)-6-chloro-1-(4-methoxyphenyl)-1H-benzimidazole]
The melting point of the first is higher: 94 to 95 °C for the first, 89 to 90 °C for the second.

First: COc1ccc(-n2c(SCc3cccc(OC)c3)nc3ccc(Cl)cc32)cc1 [Example 5, 6-Chloro-2-[(3-methoxybenzyl)thio]-1-(4-methoxyphenyl)-1H-benzimidazole]
Second: COc1ccc(CSc2nc3ccc(Cl)cc3n2-c2ccc(OC)cc2)cc1 [Example 6, 6-Chloro-2-[(4-methoxybenzyl)thio]-1-(4-methoxyphenyl)-1H-benzimidazole]
The melting point of the first is lower: 93 to 94 °C for the first, 119 to 120 °C for the second.

Compared with `Oc1ccc(-n2c(SCc3ccc(Cl)cc3)nc3ccc(Cl)cc32)cc1` [Example 9, 4-{6-Chloro-2-[(4-chlorobenzyl)thio]-1H-benzimidazol-1-yl}phenol], `Clc1ccc(CSc2nc3ccc(Cl)cc3n2-c2ccc(Cl)cc2)cc1` [Example 26, 6-Chloro-2-[(4-chlorobenzyl)thio]-1-(4-chlorophenyl)-1H-benzimidazole] is lower in melting point: 210 to 212 °C for the first, 156 to 157 °C for the second.

First: CC(=O)OCCOc1ccc(-n2c(SCc3ccc(Cl)cc3)nc3ccc(Cl)cc32)cc1 [Example 15, 2-(4-{6-Chloro-2-[(4-chlorobenzyl)thio]-1H-benzimidazol-1-yl}phenoxy)ethyl acetate]
Second: COCCOc1ccc(-n2c(SCc3ccc(Cl)cc3)nc3ccc(Cl)cc32)cc1 [Example 24, 6-Chloro-2-[(4-chlorobenzyl)thio]-1-[4-(2-methoxyethoxy)phenyl]-1H-benzimidazole]
The melting point of the first is higher: 126 to 127 °C for the first, 88 to 90 °C for the second.

Compared with `OCCOc1ccc(-n2c(SCc3ccc(Cl)cc3)nc3ccc(Cl)cc32)cc1` [Example 16, 2-(4-{6-Chloro-2-[(4-chlorobenzyl)thio]-1H-benzimidazol-1-yl}phenoxy)ethanol], `CCCCOc1ccc(-n2c(SCc3ccc(Cl)cc3)nc3ccc(Cl)cc32)cc1` [Example 22, 1-(4-Butoxyphenyl)-6-chloro-2-[(4-chlorobenzyl)thio]-1H-benzimidazole] is lower in melting point: 113 to 114 °C for the first, 96 to 97 °C for the second.

Compared with `COc1ccccc1-n1c(SCc2ccc(Cl)cc2)nc2ccc(Cl)cc21` [Example 18, 6-Chloro-2-[(4-chlorobenzyl)thio]-1-(2-methoxyphenyl)-1H-benzimidazole], `CC(C)Oc1ccc(-n2c(SCc3ccc(Cl)cc3)nc3ccc(Cl)cc32)cc1` [Example 23, 6-Chloro-2-[(4-chlorobenzyl)thio]-1-(4-isopropoxyphenyl)-1H-benzimidazole] is lower in melting point: 124 to 125 °C for the first, 102 to 103 °C for the second.

Compared with `CCOC(=O)c1ccc(-n2c(SCc3ccc(Cl)cc3)nc3ccc(Cl)cc32)cc1` [Example 19, Ethyl 4-{6-chloro-2-[(4-chlorobenzyl)thio]-1H-benzimidazol-1-yl}benzoate], `CCC(=O)c1ccc(-n2c(SCc3ccc(Cl)cc3)nc3ccc(Cl)cc32)cc1` [Example 40, 1-(4-{6-Chloro-2-[(4-chlorobenzyl)thio]-1H-benzimidazol-1-yl}phenyl)propan-1-one] is higher in melting point: 100 to 101 °C for the first, 176 to 177 °C for the second.

First: COc1ccc(-n2c(SCc3ccc(Cl)cc3)nc3ccc(OC)cc32)cc1 [Example 20, 2-[(4-Chlorobenzyl)thio]-6-methoxy-1-(4-methoxyphenyl)-1H-benzimidazole]
Second: CCOCOc1ccc(-n2c(SCc3ccc(Cl)cc3)nc3ccc(Cl)cc32)cc1 [Example 31, 6-Chloro-2-[(4-chlorobenzyl)thio]-1-[4-(ethoxymethoxy)phenyl]-1H-benzimidazole]
The melting point of the first is lower: 80 to 81 °C for the first, 130 to 131 °C for the second.

Compared with `CS(=O)(=O)Oc1ccc(-n2c(SCc3ccc(Cl)cc3)nc3ccc(Cl)cc32)cc1` [Example 25, 4-{6-Chloro-2-[(4-chlorobenzyl)thio]-1H-benzimidazol-1-yl}phenyl methanesulfonate], `CN(C)C(=O)c1ccc(-n2c(SCc3ccc(Cl)cc3)nc3ccc(Cl)cc32)cc1` [Example 27, 4-{6-Chloro-2-[(4-chlorobenzyl)thio]-1H-benzimidazol-1-yl}-N,N-dimethylbenzamide] is higher in melting point: 128 to 129 °C for the first, 139 to 140 °C for the second.

First: CCOCOc1ccc(-n2c(SCc3ccc(Br)cc3)nc3ccc(Cl)cc32)cc1 [Example 32, 2-[(4-Bromobenzyl)thio]-6-chloro-1-[4-(ethoxymethoxy)phenyl]-1H-benzimidazole]
Second: CCOc1ccc(-n2c(SCc3ccc(C#N)cc3)nc3ccc(Cl)cc32)cc1 [Example 35, 4-({[6-Chloro-1-(4-ethoxyphenyl)-1H-benzimidazol-2-yl]thio}methyl)benzonitrile]
The melting point of the first is lower: 145 to 146 °C for the first, 154 to 155 °C for the second.

First: CCOc1ccc(-n2c(SCc3ccc(-c4ccccc4)cc3)nc3ccc(Cl)cc32)cc1 [Example 34, 2-[(Biphenyl-4-ylmethyl)thio]-6-chloro-1-(4-ethoxyphenyl)-1H-benzimidazole]
Second: CCOc1ccc(-n2c(SCc3ccc(C(=O)OC)cc3)nc3ccc(Cl)cc32)cc1 [Example 37, Methyl 4-({[6-chloro-1-(4-ethoxyphenyl)-1H-benzimidazol-2-yl]thio}methyl)benzoate]
The melting point of the first is higher: 116 to 117 °C for the first, 107 to 109 °C for the second.

Work on `CON(C)C(=O)c1ccc(-n2c(SCc3ccc(Cl)cc3)nc3ccc(Cl)cc32)cc1` [Example 39, 4-{6-Chloro-2-[(4-chlorobenzyl)thio]-1H-benzimidazol-1-yl}-N-methoxy-N-methylbenzamide] yielded a melting point of 125 to 126 °C.
